Results taken from publication PMC3158247 (Journal of medicinal chemistry, 2011).

Experiments:
[1] = tested on: HepG2.2.15 cell line; conditions: MTT assay
[2] = tested on: CL57BL/6 mice
[3] = tested on: HBV-transgenic mice (strain 1.3.32); type: in vivo; conditions: oral gavage once daily for 14 days

Compound | No cytotoxicity observed up to the highest concentration tested [1] | tolerability ([2]; CL57BL/6 (normal) mice) | platelets, neutrophils, lymphocytes (trend) ([2]; single intravenous bolus 25 mg/kg, 24 hours) | serum chemistry ([2]; single intravenous bolus, […] 1a and 7.9 mg/kg 3c respectively, 24 hours) | alanine transaminase (ALT) and bilirubin [3] | other serum chemistry changes [3] | total sodium [3] | deaths as a result of compound exposure ([3]; 25 and 7.9 mg/kg) | weight loss, morphological or behavioral changes ([3]; 25 and 7.9 mg/kg)
Fc1cccc(Cl)c1C1CC(c2ccc(Cl)cc2)Nc2ncnn21 (single isomer, unassigned) [enantiomer 1 of 1a] | > 50 µM |  |  |  |  |  |  |  | 
Fc1cccc(Cl)c1C1CC(c2ccc(Cl)cc2)Nc2ncnn21 (racemic) [Compound 1a, 7-(2-Chloro-6-fluorophenyl)-5-(4-chlorophenyl)-4,5,6,7-tetrahydro-[1,2,4]triazolo[1,5-a]pyrimidine] | > 50 µM | well-tolerated | trend towards reduction of platelets and neutrophils, and also an increase in lymphocytes | unaffected | elevated levels of alanine transaminase (ALT) and bilirubin in a minority of treated animals | did not result in any other obvious and significant dose-dependent serum chemistry changes | slight rise in total sodium | No animals were observed to have died as a result of compound exposure | No weight loss, morphological or behavioral changes were noted
Fc1cccc(F)c1C1C=C(c2ccc(Cl)cc2)Nc2ncnn21 (centres unmarked) [Compound 3c, 5-(4-Chlorophenyl)-7-(2,6-difluorophenyl)-4,7-dihydro-[1,2,4]triazolo[1,5-a]pyrimidine] |  |  |  |  |  |  |  | No animals were observed to have died as a result of compound exposure | 
